Source: PMC11040653, “Fluorescent carbazole-derived α-amino acids: structural mimics of tryptophan” (Chemical Science, 2024)
No end group written: not given here. 13e = not defined here

Tests used:
[1] = UV-Vis absorption and fluorescence emission spectra of amino acids 13a–e; type: physicochemical; conditions: for λ Em / λ Em (second wavelength) / λ Abs: 5 μM; for λ Em / λ Em (second wavelength): fluorescence; for λ Abs: UV-Vis
Method: (§1) Next, the photophysical properties of amino acids 13a–13e were measured.[22,23] As it was important to identify an amino acid that could be used as a probe for different applications, the photophysical properties were assessed in both an organic solvent (methanol) and water (Table 2).
(§2) 5. Photophysical Data for a-Amino Acids 13a–e
(§3) Absorption and emission data were recorded using the following instruments:
(§4) 1. UV-Vis spectra were recorded on a Perkin Elmer Lamda 25 instrument. Fluorescence spectra were recorded on a Shimadzu RF-5301PC spectrofluorophotometer. Emission data were measured using excitation and emission bandpass filters of 3 nm.
2. Both UV-Vis spectra and fluorescence spectra were recorded on a Horiba Duetta Fluorescence and Absorbance spectrometer. Absorbance spectra were recorded with an integration time of 0.05 s, and a band pass of 5 nm. Fluorescence spectra were recorded with and excitation and emission band pass of 5 nm, an integration time of 2 s, and with detector accumulations set to 1. […]

[2] = Fluorescence quantum yield (comparative method, anthracene and L-tryptophan standards) and brightness; type: physicochemical; conditions: for Φ F (quantum yield): anthracene and L-tryptophan as standards, five concentrations, absorption below 0.1
Method: as §1, §2, §3, §4
2. Both UV-Vis spectra and fluorescence spectra were recorded on a Horiba Duetta Fluorescence and Absorbance spectrometer. Absorbance spectra were recorded with an integration time of 0.05 s, and a band pass of 5 nm. Fluorescence spectra were recorded with and excitation and emission band pass of 5 nm, an integration time of 2 s, and with detector accumulations set to 1.
Quantum yields were determined using a comparative method against two standards. Anthracene (Φ = 0.27, in ethanol) and ʟ-tryptophan (Φ = 0.14 in water) were used as standard references.9 The integrated fluorescence intensity of each compound was determined from the emission spectra given.
Measurements were performed at five different concentrations. Concentrations were chosen to ensure the absorption value was below 0.1 to avoid re-absorption effects. Integrated fluorescence intensity was plotted as a function of the measured absorbance and a linear fit was calculated. The resultant gradient was then used to calculate the quantum yield, using the equation below: […]
Subscript ST signifies the quantities associated with the quantum yield standard. Subscript X signifies the quantities associated with the novel compound. GradX is the determined gradient associated with the novel compound. GradST is the determined gradient associated with quantum yield standard. η is the refractive index of the solvent used in the fluorescence measurements. η = 1.333 for water, 1.361 for ethanol and 1.331 for methanol.

[3] = Solvatochromism of 13c–13e (emission in various solvents); type: physicochemical; conditions: emission in solvents of different polarity
Method: Measurements were performed at five different concentrations. […] Integrated fluorescence intensity was plotted as a function of the measured absorbance and a linear fit was calculated. […]
Subscript ST signifies the quantities associated with the quantum yield standard. Subscript X signifies the quantities associated with the novel compound. […]

[4] = set-up: method as in PMID 30957824; conditions: cited from earlier work
Excerpt: In combination with fluorescent spectroscopy, α-amino acids have also been used for molecular imaging, providing a method to study and visualise cellular processes in real time.[3] […] Furthermore, their occurrence at multiple sites within a protein can complicate spectroscopic analysis. To overcome these issues, many studies utilise extrinsic fluorescent labels.[4] However, these are typically large chromo ...

[5] = Circular dichroism spectroscopy of modified TrpZip1 peptide; type: physicochemical
Method: Following successful preparation of the carbazole α-amino acids, these were investigated as structural mimics of tryptophan. The effect of substituting amino acid 13e for a tryptophan residue in a well-characterised designed peptide was studied. The beta hairpin TrpZip1 was chosen as a model of beta structure.[21] An Fmoc-derivative of amino acid 13e was prepared under standard conditions and incorporated into the peptide using SPPS protocols. The resulting peptide, 14 (Table 1) was purified by reverse phase HPLC and characterised using high resolution electrospray ionisation mass spectrometry.

[6] = ethanol; standard reference; ref 9 (supplement); cited from earlier work
Method: page 24: 5. Photophysical Data for a-Amino Acids 13a–e Absorption and emission data were recorded using the following instruments: 1. UV-Vis spectra were recorded on a Perkin Elmer Lamda 25 instrument. Fluorescence spectra were recorded on a Shimadzu RF-5301PC spectrofluorophotometer. Emission data were measured using excitation and emission bandpass filters of 3 nm. 2. Both UV-Vis spectra and fluorescence spectra were recorded on a Horiba Duetta Fluorescence and Absorbance spectrometer. Absorbance spectra were recorded with an integration time of 0.05 s, and a band pass of 5 nm. Fluorescence ...

Compound | ε (molar attenuation coefficient) ([1]; MeOH) | λ Em ([1]; MeOH) | λ Em (second wavelength) ([1]; MeOH) | ε (molar attenuation coefficient) ([1]; Water) | λ Abs ([1]; Water) | λ Em ([1]; Water) | Brightness ([2]; MeOH) | Φ F (quantum yield) ([2]; MeOH) | Brightness ([2]; Water) | Φ F (quantum yield) ([2]; Water) | λ Abs ([1]; MeOH) | other results
Cl.N[C@@H](Cc1ccc2[nH]c3cc(C(F)(F)F)ccc3c2c1)C(=O)O [amino acid 13e, (2S)-2-amino-3-(7-trifluoromethyl-9H-carbazol-3’-yl)propanoic acid hydrochloride] | 11 600 cm^−1 M^−1 | 365 nm | 378 nm | 14 000 cm^−1 M^−1 | 348 nm | 380 nm | 700 cm⁻¹ M⁻¹ | 0.06 | 3360 cm⁻¹ M⁻¹ | 0.24 |  | increase in brightness in water ([2]; water relative to methanol): ~5 fold; ε and quantum yield in water ([2]; water relative to methanol): enhanced in water; solvatochromism [3]: minimal solvatochromism
N#Cc1cccc2[nH]cc(C[C@H](N)C(=O)O)c12 [compound 3, L-4-cyanotryptophan] |  |  |  |  |  |  |  |  |  |  |  | fluorescence lifetime [4]: long fluorescence lifetime
COc1ccc2c(c1)[nH]c1ccc(C[C@H](N)C(=O)O)cc12.Cl [amino acid 13b, (2S)-2-Amino-3-(7-methoxy-9H-carbazol-3’-yl)propanoic acid hydrochloride] | 12 700 cm^−1 M^−1 | 354 nm |  | 12 100 cm^−1 M^−1 | 331 nm | 357 nm | 4450 cm⁻¹ M⁻¹ | 0.35 | 5200 cm⁻¹ M⁻¹ | 0.43 | 329 nm | 
Cl.N[C@@H](Cc1ccc2[nH]c3ccc4ccccc4c3c2c1)C(=O)O [amino acid 13c, (2S)-2-Amino-3-(7H-benzo[c]carbazol-10-yl)propanoic acid hydrochloride] | 16 100 cm^−1 M^−1 | 371 nm | 388 nm | 10 900 cm^−1 M^−1 |  | 377 nm | 12 240 cm^−1 M^−1 | 0.76 | 6430 cm⁻¹ M⁻¹ | 0.59 | 351 nm | λ Em (second wavelength) ([1]; Water): 390 nm; solvatochromism [3]: minimal solvatochromism
Cl.N[C@@H](Cc1ccc2[nH]c3ccccc3c2c1)C(=O)O [amino acid 13a, (2S)-2-Amino-3-(9H-carbazol-3’-yl)propanoic acid hydrochloride] | 16 500 cm^−1 M^−1 | 350 nm | 366 nm | 8800 cm⁻¹ M⁻¹ | 341 nm | 352 nm | 5120 cm⁻¹ M⁻¹ | 0.31 | 2460 cm⁻¹ M⁻¹ | 0.28 | 342 nm | λ Em (second wavelength) ([1]; Water): 366 nm
peptide 14: TrpZip1 modified with amino acid 13e (SWTWEGNK-{13e-Thr-Trp-Lys-NH2}; reading uncertain) |  |  |  |  |  |  |  |  |  |  |  | secondary structure ([5]; CD, carbazole amino acid 13e replacing tryptophan in TrpZip1): preserved the original secondary structure; CD maximum ([5]; circular dichroism): 228 nm; CD minimum ([5]; circular dichroism): 214 nm; near-UV CD signal ([5]; circular dichroism, indicative of ordered aromatic side chains): 280–310 nm
c1ccc2cc3ccccc3cc2c1 [Anthracene] |  |  |  |  |  |  |  |  |  |  |  | quantum yield of standard [6]: 0.27
